Measured values reported in US10793885B2, “Compositions and methods for making noscapine and synthesis intermediates thereof” (priority 2013, dated 2020).

How the values were obtained:
[1] = molecular target: T1, NOS (Papaver somniferum, UniProt I3PLR3); type: biochemical, opium poppy (Papaver somniferum); details: for acceptance as substrate / conversion by NOS: recombinant NOS, product detection by LC-MS/MS; for Km: cofactor of NOS for the conversion of narcotine hemiacetal to noscapine
T1 construct: His-tag (pRSETA leader) (N); made in house; host or cells: Escherichia coli Rosetta (DE3) pLysS
T1 sequence (I3PLR3 1-348): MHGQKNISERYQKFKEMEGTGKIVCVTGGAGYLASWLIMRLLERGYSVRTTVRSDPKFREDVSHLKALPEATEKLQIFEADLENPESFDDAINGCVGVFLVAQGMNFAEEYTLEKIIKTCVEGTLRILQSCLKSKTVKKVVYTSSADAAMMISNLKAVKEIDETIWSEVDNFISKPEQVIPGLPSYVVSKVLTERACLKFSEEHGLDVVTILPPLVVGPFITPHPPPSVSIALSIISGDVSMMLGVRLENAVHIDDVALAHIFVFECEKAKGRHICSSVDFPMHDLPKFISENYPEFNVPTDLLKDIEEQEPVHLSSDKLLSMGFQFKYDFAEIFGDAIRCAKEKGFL
Text: The full-length cDNA sequence of CL1327Contig1 (see: Example 2) was cloned into vector pRSETA in-frame with an N-terminal His-tag and expressed in E. coli as follows. The NOS coding region was amplified from opium poppy stem cDNA using the following primer set: 5′-[…]-3′ (SEQ ID NO: 601) and 5′-[…]-3′ (SEQ ID NO: 602). The NOS cDNA was cloned into the expression vector pRSETA (Invitrogen) at the SacI and KpnI restriction sites in frame with an N-terminal His-tag sequence. The expression construct was transformed into Escherichia coli strain Rosetta (DE3) pLysS (EMD Chemicals, Darmstadt, Germany). Expression of the recombinant gene was induced overnight with 1 mM isopropyl β-D-thiogalactoside (IPTG) at room temperature. Cells were harvested by centrifugation and sonicated in a buffer containing 50 mM sodium phosphate, pH 7.0, 300 mM NaCl, and 10 mM β-mercaptoethanol. After centrifugation at 20,000 g for 10 min, the supernatant was loaded onto Talon cobalt affinity resin (Clontech, Mountain View, Calif.). Purification was performed according to the manufacturer's instruction. The purified, recombinant protein was desalted using an Amicon centrifugal filter −30K (Millipore, Billerica, Mass.) and stored in a buffer containing 50 mM Tris-HCl, pH 8.0, 1 mM EDTA, 1 mM β-mercaptoethanol, and 10% (v/v) glycerol. Protein concentration was determined by the Bradford assay (Bio-Rad, Hercules, Calif.) using bovine serum albumin as the standard.
The purified recombinant NOS enzyme (see: Example 4) was assayed using either narcotine hemiacetal as the substrate (in the presence of either NAD^+ or NADP^+ as cofactor) for dehydrogenase activity, or with noscapine as the substrate (in the presence of NADH or NADPH as the cofactor) for reductase activity. LC-MS/MS was used to identify and quantify product formation (FIG. 7). […] LC-MS/MS and CID spec
In addition to narcotine hemiacetal and noscapine, NOS was also assayed with several other BIAs that could potentially serve as substrates for dehydrogenase/reductase reactions.

[2] = molecular target: T2, CYP82X2 (UniProt D5J9U8+I3PLR0); test: In vitro enzyme assay with yeast microsomal fractions containing CYP82X2 (CPR/82X2); type: biochemical, Papaver somniferum; details: yeast microsomes (CPR/82X2), extracted ion chromatograms, FIG. 13
T2 construct: the full-length coding regions of CYP82X1 and CYP82X2 were inserted into the NotI and SpeI restriction sites; FLAG; made in house; host or cells: Saccharomyces cerevisiae YPL 154C:Pep4, microsomal fraction
T2 sequence (D5J9U8+I3PLR0 with tags, fused parts or gaps): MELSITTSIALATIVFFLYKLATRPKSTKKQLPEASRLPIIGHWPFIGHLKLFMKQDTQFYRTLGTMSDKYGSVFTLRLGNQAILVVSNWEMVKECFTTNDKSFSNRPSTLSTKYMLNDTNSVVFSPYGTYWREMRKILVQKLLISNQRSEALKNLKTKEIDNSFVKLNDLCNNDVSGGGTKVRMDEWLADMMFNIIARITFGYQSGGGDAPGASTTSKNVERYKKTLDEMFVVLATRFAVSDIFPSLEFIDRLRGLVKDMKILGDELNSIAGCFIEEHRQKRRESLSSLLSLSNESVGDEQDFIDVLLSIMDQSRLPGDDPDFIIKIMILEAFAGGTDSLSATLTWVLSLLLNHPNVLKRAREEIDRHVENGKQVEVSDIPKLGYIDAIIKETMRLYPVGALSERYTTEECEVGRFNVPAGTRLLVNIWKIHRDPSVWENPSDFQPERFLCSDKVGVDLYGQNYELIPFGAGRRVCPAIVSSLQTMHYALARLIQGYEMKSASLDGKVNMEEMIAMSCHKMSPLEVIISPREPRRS
Text: (§1) The full-length coding region of CYP82X1 was amplified using cDNA derived from total stem RNA of the Bea's Choice chemotype using Takara Ex Taq DNA polymerase (Fisher Scientific, Ottawa, Canada), and using a primer 5′-[…]-3′ (SEQ ID NO: 607) and reverse primer 5′-[…]-3′ (SEQ ID NO: 608). Owing to problems with heterologous expression in yeast, CYP82X2 was synthesized with the first 60 N-terminal amino acids replaced with the first 43 N-terminal amino acids from the lettuce cytochrome P450 germacrene A oxidase Nguyen, D. T. et al. J. Biol. Chem. 285, 16588-16598 (2010). For heterologous expression of Flag-tagged CYPs in yeast (Saccharomyces cerevisiae), the full-length coding regions of CYP82X1 and CYP82X2 were inserted into the NotI and SpeI restriction sites of the dual plasmid pESC-leu2d::CPR Ro, D.-K., Ouellet, M., Paradise, E. M., Burd, H., Eng, D., Paddon, C. J., Newman, J. D., & Keesling, J. D. BMC Biotech. 8, 83 (2008) yielding pESC-Leu2d::CYP82X1/CPR and pESC-Leu2d::CYP82X2/CPR. The protease-deficient yeast strain YPL 154C:Pep4 was transformed with pESC-Leu2d::CYP82X1/CPR and pESC-Leu2d::CYP82X2/CPR. Yeast culture, microsome preparation, and immunoblot analysis were performed as described previously Dang, T.-T. T. & Facchini, P. J. J. Biol. Chem. 289, 2013-2026 (2014). For heterologous expression of CXE1, CXE2, and AT1, corresponding open reading frames were amplified using cDNA derived from total stem RNA of the Bea's Choice chemotype and cloned in-frame an N-terminal His-tag sequence in the Escherichia coli expression vector pRSETA (Invitrogen, Carlsbad, Calif.). CXE1 and CXE2 were individually inserted into the SacI and HindIII restriction sties, whereas AT1 was inserted into the KpnI and HindIII sites, of pRSETA using a primer 5′-[…]-3′ (SEQ ID NO: 609) and reverse primer 5′-[…]-3′ (SEQ ID NO: 610). […] Microsomal fractions containing recombinant CYP82X1 or CYP82X2 were detected using a-FLAG antibodies, whereas recombinant CPR was detected using α-c-Myc antibodies (FIG. 12 A). […]

[3] = molecular target: T3, CYP82X1 (Papaver somniferum, UniProt I3V6B7); test: In vitro enzyme assay with yeast microsomal fractions containing CYP82X1 (CPR/82X1); type: biochemical; details: yeast microsomes (CPR/82X1), extracted ion chromatograms, FIG. 13
T3 construct: The full-length coding region of CYP82X1 was amplified using cDNA derived from total stem RNA of the Bea's Choice chemotype; FLAG; made in house; host or cells: Saccharomyces cerevisiae YPL 154C:Pep4, microsomal fraction
T3 sequence (I3V6B7 1-540): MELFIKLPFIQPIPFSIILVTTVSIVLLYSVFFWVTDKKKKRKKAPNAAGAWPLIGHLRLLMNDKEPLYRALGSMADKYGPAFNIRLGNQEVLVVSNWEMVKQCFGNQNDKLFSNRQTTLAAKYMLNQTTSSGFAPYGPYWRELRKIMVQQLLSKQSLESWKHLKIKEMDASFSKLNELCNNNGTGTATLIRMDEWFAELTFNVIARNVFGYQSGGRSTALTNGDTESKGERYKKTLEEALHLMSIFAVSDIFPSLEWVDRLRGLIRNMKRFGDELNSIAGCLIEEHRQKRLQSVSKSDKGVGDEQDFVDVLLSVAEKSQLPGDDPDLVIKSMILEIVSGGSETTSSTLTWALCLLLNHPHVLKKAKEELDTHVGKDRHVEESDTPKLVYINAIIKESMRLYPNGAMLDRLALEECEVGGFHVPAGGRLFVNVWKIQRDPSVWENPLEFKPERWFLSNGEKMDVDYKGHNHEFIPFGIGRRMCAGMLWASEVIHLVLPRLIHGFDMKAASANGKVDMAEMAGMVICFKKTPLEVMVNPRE
Text: as §1

[4] = molecular target: CYP82Y1 (Papaver somniferum, UniProt I3PLR1, R101S); details: yeast microsomes, 500 μM NADPH, pH 7.5, 30° C.
Chain of CYP82Y1 (I3PLR1 whole entry R101S): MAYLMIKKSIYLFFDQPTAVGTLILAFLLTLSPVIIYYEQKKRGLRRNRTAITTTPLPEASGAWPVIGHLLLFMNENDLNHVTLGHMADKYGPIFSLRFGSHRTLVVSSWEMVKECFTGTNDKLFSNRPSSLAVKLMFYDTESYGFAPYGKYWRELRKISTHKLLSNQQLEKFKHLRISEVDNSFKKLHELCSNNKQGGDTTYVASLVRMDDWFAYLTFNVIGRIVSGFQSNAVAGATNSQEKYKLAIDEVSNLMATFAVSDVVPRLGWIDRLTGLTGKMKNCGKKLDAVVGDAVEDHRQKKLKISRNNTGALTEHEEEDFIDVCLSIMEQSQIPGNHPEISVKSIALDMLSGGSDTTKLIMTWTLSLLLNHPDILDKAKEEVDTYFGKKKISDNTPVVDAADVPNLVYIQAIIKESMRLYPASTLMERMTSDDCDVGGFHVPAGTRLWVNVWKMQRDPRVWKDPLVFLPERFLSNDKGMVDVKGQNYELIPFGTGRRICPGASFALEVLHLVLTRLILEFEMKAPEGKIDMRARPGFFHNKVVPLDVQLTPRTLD

Structure (SMILES): COc1ccc2c(c1OC)C(O)O[C@@H]2[C@H]1c2c(cc3c(c2O)OCO3)CCN1C (stereo partly drawn) [narcotoline hemiacetal]
- acceptance as substrate / conversion by NOS [1]: yielded a new compound consistent with narcotoline

Structure (SMILES): COc1ccc2c(c1OC)C[N+]1(C)CCc3cc4c(c(O)c3C1C2OC(C)=O)OCO4 [(S)-1-hydroxy-13-O-acetyl-N-methylcanadine]
- conversion as substrate by CYP82X2 [2]: showed no activity
- conversion as substrate by CYP82X1 [3]: converting (S)-1-hydroxy-13-O-acetyl-N-methylcanadine (m/z 428) to (S)-1,8-dihydroxy-13-O-acetyl-N-methylcanadine

Structure (SMILES): COc1ccc2c(c1OC)C(O)OC2C1c2c(cc3c(c2OC)OCO3)CCN1C (stereo not drawn) [narcotine hemiacetal]
- affinity of NOS for the alkaloid substrate and corresponding catalytic efficiency ([1]; in the presence of NAD^+ compared with NADP^+ as the cofactor): significantly higher
- acceptance as substrate / conversion by NOS [1]: able to oxidize the hydroxyl group on the hemiacetal ring

Structure (SMILES): COc1ccc2c3c1O[C@H]1C(=O)C=C[C@H]4[C@@H](C2)N(C)CC[C@]314 [codeinone]
- acceptance as substrate / conversion by NOS [1]: none were accepted by NOS

Structure (SMILES): NC(=O)c1ccc[n+]([C@@H]2O[C@H](COP(=O)([O-])OP(=O)(O)OC[C@H]3O[C@@H](n4cnc5c(N)ncnc54)[C@H](OP(=O)(O)O)[C@@H]3O)[C@@H](O)[C@H]2O)c1 [NADP^+]
- Km [1]: 1250 µM

Structure (SMILES): COc1ccc2c3c1O[C@H]1[C@@H](O)C=C[C@H]4[C@@H](C2)N(C)CC[C@@]341 [codeine]
- acceptance as substrate / conversion by NOS [1]: none were accepted by NOS

Structure (SMILES): COc1ccc2c(c1OC)C[N+]1(C)CCc3cc4c(cc3C1C2)OCO4 [(S)—N-methylcanadine]
- conversion as substrate by CYP82Y1 [4]: yielding 1-hydroxy-N-methylcanadine

Structure (SMILES): NC(=O)c1ccc[n+]([C@@H]2O[C@H](COP(=O)([O-])OP(=O)(O)OC[C@H]3O[C@@H](n4cnc5c(N)ncnc54)[C@H](O)[C@@H]3O)[C@@H](O)[C@H]2O)c1 [NAD^+]
- Km [1]: 33.1 µM

Structure (SMILES): C[N@@+]12CCc3cc4c(cc3[C@@H]1Cc1ccc3c(c1C2)OCO3)OCO4 [N-methylstylopine, reference compound]
- conversion as substrate by CYP82Y1 [4]: give rise to 1-hydroxy-N-methylstylopine

Structure (SMILES): c1cc2c(c3c1C[C@H]1c4cc5c(cc4CCN1C3)OCO5)OCO2 [stylopine]
- acceptance as substrate / conversion by NOS [1]: none were accepted by NOS

Structure (SMILES): COc1ccc2c(c1OC)C[N+]1(C)CCc3cc4c(c(O)c3C1C2)OCO4 [(S)-1-hydroxy-N-methylcanadine]
- conversion as substrate by CYP82X2 [2]: yielding (S)-1,13-dihydroxy-N-methylcanadine
- conversion as substrate by CYP82X1 [3]: 4-O-demethylmacrantaldehyde

Structure (SMILES): COC1=C[C@]23CCN(C)[C@H](Cc4ccc(OC)c(O)c42)C3=CC1=O [salutaridine]
- acceptance as substrate / conversion by NOS [1]: none were accepted by NOS
